According to patent publication US20200399264A1, “4-SUBSTITUTED-2-THIAZOLE AMIDES AS ANTIVIRAL AGENTS” (Southern Research Institute, priority 2019, published 2020):

How the values were obtained:
[1] = tested on: CHIKV; assay: antiviral activity against CHIKV (VTR and EC90); type: cell-based; details: Chikungunya virus; for log reduction at 10 µM: read-out: VTR @ 10 μM (logs)
Description: As used herein, “EC90,” is intended to refer to the concentration of a substance (e.g., a compound or a drug) that is required for 90% agonism of a biological process, or component of a process, including a protein, subunit, organelle, ribonucleoprotein, etc. In one aspect, an EC90 can refer to the concentration of a substance that is required for 90% agonism in vivo, as further defined elsewhere herein. In a further aspect, […].

[2] = cell cytotoxicity in a cell viability assay (CC50); type: cell-based; details: concentration required for 50% cell survival
Description: As used herein, “CC50,” is intended to refer to the cell cytotoxicity to the concentration of a substance (e.g., a compound or a drug) that is required for 50% cell survival in a cell viability assay in vitro.

| Structure (SMILES) | EC90 [1] [µM] | log reduction at 10 µM [1] | CC50 [2] [µM] |
| --- | --- | --- | --- |
| CSc1ncccc1C(=O)Nc1nc(-c2cccc(-c3ccc(CN)cc3)c2)cs1 [Compound 26, N-(4-(4′-(aminomethyl)-[1,1′-biphenyl]-3-yl)thiazol-2-yl)-2-(methylthio)nicotinamide] | 0.75 | 8.75 | > 40 |
| CC(C)(C)c1ccc(C(=O)Nc2nc(-c3cccc(-c4ccc(CN)cc4)c3)cs2)cc1 [Compound 27, N-(4-(4′-(Aminomethyl)-[1,1′-biphenyl]-3-yl)thiazol-2-yl)-4-(tert-butyl)benzamide] | 1.27 | 5.24 | 9.02 |
| COc1ncc(-c2cccc(-c3csc(NC(=O)c4cccnc4SC)n3)c2)cn1 [Compound 28, N-(4-(3-(2-Methoxypyrimidin-5-yl)phenyl)thiazol-2-yl)-2-(methylthio)nicotinamide] |  | 2.52 | > 40 |
| CSc1ncccc1C(=O)Nc1nc(-c2cccc(-n3ccnc3)c2)cs1 [Compound 29, N-(4-(3-(1H-imidazol-1-yl)phenyl)thiazol-2-yl)-2-(methylthio)nicotinamide] | 0.27 | 1.39 | > 40 |
| CC(C)(C)c1ccc(C(=O)Nc2nc(-c3cccc(N4CCNCC4)c3)cs2)cc1 [Compound 30, 4-(Tert-Butyl)-N-(4-(3-(piperazin-1-yl)phenyl)thiazol-2-yl)benzamide] |  | 5.57 | 4.1 |
| CSc1ncccc1C(=O)Nc1nc(-c2cccc(N3CCNCC3)c2)cs1 [Compound 31, 2-(Methylthio)-N-(4-(3-(piperazin-1-yl)phenyl)thiazol-2-yl)nicotinamide] | 9.1 | 8.69 | > 30 |
| CSc1ncccc1C(=O)Nc1nc(-c2cccc(N3CCN(C(C)=O)CC3)c2)cs1 [Compound 32, N-(4-(3-(4-acetylpiperazin-1-yl)phenyl)thiazol-2-yl)-2-(methylthio)nicotinamide] |  | < 1 | > 40 |
| CSc1ncccc1C(=O)Nc1nc(-c2cccc(N3CCN(S(C)(=O)=O)CC3)c2)cs1 [Compound 33, N-(4-(3-(4-(methylsulfonyl)piperazin-1-yl)phenyl)thiazol-2-yl)-2-(methylthio)nicotinamide] |  | 2.04 | > 40 |
| CSc1ncccc1C(=O)Nc1nc(-c2cccc(N3CCOCC3)c2)cs1 [Compound 34, 2-(Methylthio)-N-(4-(3-morpholinophenyl)thiazol-2-yl)nicotinamide] |  | 1.88 | > 40 |
| CSc1ncccc1C(=O)Nc1nc(-c2cccc(N3CCCC3=O)c2)cs1 [Compound 35, 2-(Methylthio)-N-(4-(3-(2-oxopyrrolidin-1-yl)phenyl)thiazol-2-yl)nicotinamide] |  | < 1 | 39.4 |
| CSc1ncccc1C(=O)Nc1nc(-c2cccc(Oc3ccccc3)c2)cs1 [Compound 36, 2-methylsulfanyl-N-[4-(3-phenoxyphenyl)thiazol-2-yl]pyridine-3-carboxamide] |  | 4.87 | > 40 |
| CSc1ncccc1C(=O)Nc1nc(-c2cccc(Nc3ccc(C#N)cc3)c2)cs1 [Compound 37, N-(4-(3-((4-Cyanophenyl)amino)phenyl)thiazol-2-yl)-2-(methylthio)nicotinamide] | 0.45 | 8.68 | > 40 |
| CSc1ncccc1C(=O)Nc1nc(-c2cccc(Nc3cccc(C#N)c3)c2)cs1 [Compound 38, N-(4-(3-((3-Cyanophenyl)amino)phenyl)thiazol-2-yl)-2-(methylthio)nicotinamide] | 0.15 | 5.72 | > 40 |
| CSc1ncccc1C(=O)Nc1nc(-c2cccc(Nc3ccccc3C#N)c2)cs1 [Compound 39, N-(4-(3-((2-Cyanophenyl)amino)phenyl)thiazol-2-yl)-2-(methylthio)nicotinamide] | 0.5 | 5.23 | > 40 |
| CSc1ncccc1C(=O)Nc1nc(-c2cccc(Nc3cccc(C(F)(F)F)c3)c2)cs1 [Compound 40, 2-(Methylthio)-N-(4-(3-((3-(trifluoromethyl)phenyl)amino)phenyl)thiazol-2-yl)nicotinamide] | 3.1 | 5.36 | > 40 |
| CC(C)(C)c1ccc(C(=O)Nc2nc(-c3cccc(Nc4ccc(C#N)cc4)c3)cs2)nc1 [Compound 41, 5-(Tert-Butyl)-N-(4-(3-((4-cyanophenyl)amino)phenyl)thiazol-2-yl)picolinamide] | > 10 | 0.82 | > 40 |
| N#Cc1ccc(Nc2cccc(-c3csc(NC(=O)C45CC(C(=O)O)(C4)C5)n3)c2)cc1 [Compound 42, 3-((4-(3-((4-Cyanophenyl)amino)phenyl)thiazol-2-yl)carbamoyl)bicyclo[1.1.1]pentane-1-carboxylic Acid] | > 10 | 0 | > 40 |
| COC(=O)C12CC(C(=O)Nc3nc(-c4cccc(Nc5ccc(C#N)cc5)c4)cs3)(C1)C2 [Compound 43, Methyl 3-((4-(3-((4-cyanophenyl)amino)phenyl)thiazol-2-yl)carbamoyl)bicyclo[1.1.1]pentane-1-carboxylate] | 10.1 | 0.74 | 13 |
| CC(C)(C#N)c1ccc(C(=O)Nc2nc(-c3cccc(Nc4ccc(C#N)cc4)c3)cs2)cc1 [Compound 44, N-(4-(3-((4-cyanophenyl)amino)phenyl)thiazol-2-yl)-4-(2-cyanopropan-2-yl)benzamide] | 0.98 | 2.65 | > 40 |
| CSc1ncccc1C(=O)Nc1nc(-c2cccc(Nc3ccc(CN)cc3)c2)cs1 [Compound 45, N-(4-(3-((4-(aminomethyl)phenyl)amino)phenyl)thiazol-2-yl)-2-(methylthio)nicotinamide] | 5.8 | 1.23 | 12.8 |
| COc1cc(Nc2cccc(-c3csc(NC(=O)c4cccnc4SC)n3)c2)ccc1C#N [Compound 46, N-(4-(3-((4-yano-3-methoxyphenyl)amino)phenyl)thiazol-2-yl)-2-(methylthio)nicotinamide] | 0.34 | 5.06 | > 40 |
| CSc1ncccc1C(=O)Nc1nc(-c2cc(Nc3ccc(C#N)cc3)cc(N3CCOCC3)c2)cs1 [Compound 47, N-(4-(3-((4-cyanophenyl)amino)-5-morpholinophenyl)thiazol-2-yl)-2-(methylthio)nicotinamide] | 0.1 | 5.14 | > 40 |
| CSc1ncccc1C(=O)Nc1nc(-c2cccc(Nc3ccc(C)c(C#N)c3)c2)cs1 [Compound 48, N-(4-(3-((3-cyano-4-methylphenyl)amino)phenyl)thiazol-2-yl)-2-(methylthio)nicotinamide] | 0.89 | 4.52 | > 40 |
| CSc1ncccc1C(=O)Nc1nc(-c2cc(Cl)cc(Nc3ccc(C#N)cc3)c2)cs1 [Compound 49, N-(4-(3-chloro-5-((4-cyanophenyl)amino)phenyl)thiazol-2-yl)-2-(methylthio)nicotinamide] | 0.21 | 5.84 | > 40 |
